#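 Compound exposure: 48 hours, 5 concentrations, 96-well plates. TGI marks complete inhibition of growth.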
# Assays:
# Test in all cases: NCI tumour cell line growth inhibition, 48 h
# HT29 colon = test system: HT29 colon
# RPMI-8226 leukemia = test system: RPMI-8226 leukemia
# OVCAR-5 ovarian = test system: OVCAR-5 ovarian
# UO-31 renal = test system: UO-31 renal
# UACC-257 melanoma = test system: UACC-257 melanoma
# A549 NSCLC = test system: A549 NSCLC
# U251 CNS = test system: U251 CNS
# LOX IMVI melanoma = test system: LOX IMVI melanoma
# OVCAR-4 ovarian = test system: OVCAR-4 ovarian
# DMS 273 small cell lung = test system: DMS 273 small cell lung
# SN12C renal = test system: SN12C renal
# RXF 393 renal = test system: RXF 393 renal
# SF-268 CNS = test system: SF-268 CNS
# OVCAR-3 ovarian = test system: OVCAR-3 ovarian
# HCC-2998 colon = test system: HCC-2998 colon
# HOP-18 NSCLC = test system: HOP-18 NSCLC
# M19-MEL melanoma = test system: M19-MEL melanoma
# SF-295 CNS = test system: SF-295 CNS
# KM12 colon = test system: KM12 colon
# P388 leukemia = test system: P388 leukemia
# DMS 114 small cell lung = test system: DMS 114 small cell lung
# HCT-116 colon = test system: HCT-116 colon
# SK-MEL-28 melanoma = test system: SK-MEL-28 melanoma
# SNB-75 CNS = test system: SNB-75 CNS
# DLD-1 colon = test system: DLD-1 colon
# NCI-H460 lung = test system: NCI-H460 lung
# NCI-H522 lung = test system: NCI-H522 lung
# SK-MEL-5 melanoma = test system: SK-MEL-5 melanoma
# K-562 leukemia = test system: K-562 leukemia
# SW-620 colon = test system: SW-620 colon
# UACC-62 melanoma = test system: UACC-62 melanoma
# MCF7 breast = test system: MCF7 breast
# HOP-92 NSCLC = test system: HOP-92 NSCLC
# P388/ADR leukemia = test system: P388/ADR leukemia
# MOLT-4 leukemia = test system: MOLT-4 leukemia
# CCRF-CEM leukemia = test system: CCRF-CEM leukemia
# EKVX NSCLC = test system: EKVX NSCLC
# SF-539 CNS = test system: SF-539 CNS
# HCT-15 colon = test system: HCT-15 colon
# SN12K1 renal = test system: SN12K1 renal
# XF 498 CNS = test system: XF 498 CNS
# NCI/ADR-RES ovarian = test system: NCI/ADR-RES ovarian
# CAKI-1 renal = test system: CAKI-1 renal
# NCI-H23 lung = test system: NCI-H23 lung
# COLO 205 colon = test system: COLO 205 colon
# NCI-H226 lung = test system: NCI-H226 lung
# SNB-78 CNS = test system: SNB-78 CNS
# OVCAR-8 ovarian = test system: OVCAR-8 ovarian
# SK-OV-3 ovarian = test system: SK-OV-3 ovarian
# SK-MEL-2 melanoma = test system: SK-MEL-2 melanoma
# MALME-3M melanoma = test system: MALME-3M melanoma
# HL-60(TB) leukemia = test system: HL-60(TB) leukemia
# SNB-19 CNS = test system: SNB-19 CNS
# KM20L2 colon = test system: KM20L2 colon
# A498 renal = test system: A498 renal
# HOP-62 NSCLC = test system: HOP-62 NSCLC
# IGROV1 ovarian = test system: IGROV1 ovarian
compound,measurement,setting,value
O=NN1C(c2ccccc2)CCCC1c1ccccc1 (configuration not stated),TGI,HT29 colon,> 54.8 µM
same,TGI,RPMI-8226 leukemia,> 100 µM
same,TGI,OVCAR-5 ovarian,> 100 µM
same,TGI,UO-31 renal,> 100 µM
same,TGI,UACC-257 melanoma,> 100 µM
same,TGI,A549 NSCLC,> 100 µM
same,TGI,U251 CNS,> 100 µM
same,TGI,LOX IMVI melanoma,> 100 µM
same,TGI,OVCAR-4 ovarian,> 100 µM
same,TGI,DMS 273 small cell lung,> 100 µM
same,TGI,SN12C renal,> 100 µM
same,TGI,RXF 393 renal,> 100 µM
same,TGI,SF-268 CNS,> 100 µM
same,TGI,OVCAR-3 ovarian,> 100 µM
same,TGI,HCC-2998 colon,> 100 µM
same,TGI,HOP-18 NSCLC,> 100 µM
same,TGI,M19-MEL melanoma,> 100 µM
same,TGI,SF-295 CNS,> 100 µM
same,TGI,KM12 colon,> 100 µM
same,TGI,P388 leukemia,81.8 µM
same,TGI,DMS 114 small cell lung,> 100 µM
same,TGI,HCT-116 colon,> 100 µM
same,TGI,SK-MEL-28 melanoma,> 100 µM
same,TGI,SNB-75 CNS,> 77.6 µM
same,TGI,DLD-1 colon,> 100 µM
same,TGI,NCI-H460 lung,> 100 µM
same,TGI,NCI-H522 lung,> 81.2 µM
same,TGI,SK-MEL-5 melanoma,> 100 µM
same,TGI,K-562 leukemia,> 100 µM
same,TGI,SW-620 colon,> 100 µM
same,TGI,UACC-62 melanoma,> 100 µM
same,TGI,MCF7 breast,> 100 µM
same,TGI,HOP-92 NSCLC,> 96.1 µM
same,TGI,P388/ADR leukemia,> 100 µM
same,TGI,MOLT-4 leukemia,> 100 µM
same,TGI,CCRF-CEM leukemia,> 100 µM
same,TGI,EKVX NSCLC,99.1 µM
same,TGI,SF-539 CNS,> 100 µM
same,TGI,HCT-15 colon,> 100 µM
same,TGI,SN12K1 renal,> 100 µM
same,TGI,XF 498 CNS,87.5 µM
same,TGI,NCI/ADR-RES ovarian,> 100 µM
same,TGI,CAKI-1 renal,> 100 µM
same,TGI,NCI-H23 lung,> 100 µM
same,TGI,COLO 205 colon,> 100 µM
same,TGI,NCI-H226 lung,> 100 µM
same,TGI,SNB-78 CNS,> 100 µM
same,TGI,OVCAR-8 ovarian,> 100 µM
same,TGI,SK-OV-3 ovarian,> 82.3 µM
same,TGI,SK-MEL-2 melanoma,> 100 µM
same,TGI,MALME-3M melanoma,> 100 µM
same,TGI,HL-60(TB) leukemia,> 75.2 µM
same,TGI,SNB-19 CNS,> 100 µM
same,TGI,KM20L2 colon,> 100 µM
same,TGI,A498 renal,> 85.5 µM
same,TGI,HOP-62 NSCLC,> 100 µM
same,TGI,IGROV1 ovarian,> 100 µM
